For test [1], the system named is DU-145. Briefly: Displacement of [14C]-spermidine from polyamine transporter in human DU145 cells at 1 to 100 uM after 10 mins. The test is classed as cell-based.
Test [2] has as its target Diamine acetyltransferase 1 (Homo sapiens) (UniProt P21673). Briefly: Activity of SSAT in human DU145 cells assessed per ug DNA at 100 uM after 24 hrs in presence of serum amine oxidase inhibitor aminoguanidine (RVb = 59 +/- 1 pmol/h per ug DNA). Particulars: DU-145. The test is classed as cell-based.
Test [3] deals with T1, Ornithine decarboxylase (Homo sapiens) (UniProt P11926).
T1 sequence (whole entry): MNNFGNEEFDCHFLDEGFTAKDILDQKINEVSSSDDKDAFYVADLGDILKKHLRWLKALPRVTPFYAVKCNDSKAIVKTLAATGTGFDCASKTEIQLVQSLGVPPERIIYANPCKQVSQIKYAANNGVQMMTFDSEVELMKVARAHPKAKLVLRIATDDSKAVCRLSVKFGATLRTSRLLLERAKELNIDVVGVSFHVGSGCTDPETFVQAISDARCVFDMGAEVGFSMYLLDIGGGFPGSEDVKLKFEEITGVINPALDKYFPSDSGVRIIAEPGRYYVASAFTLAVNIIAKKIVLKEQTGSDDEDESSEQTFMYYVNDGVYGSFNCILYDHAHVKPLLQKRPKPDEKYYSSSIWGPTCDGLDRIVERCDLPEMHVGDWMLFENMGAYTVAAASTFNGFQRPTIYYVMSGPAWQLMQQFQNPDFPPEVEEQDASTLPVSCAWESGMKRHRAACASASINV
Briefly: Activity of ornithine decarboxylase in human DU145 cells assessed per ug DNA at 100 uM after 48 hrs in presence of serum amine oxidase inhibitor aminoguanidine (RVb = 17.7+/- 2.6 pmol/h per ug DNA). The following applies: DU-145. The test is classed as cell-based.

The target in test [4] is T2, S-adenosylmethionine decarboxylase proenzyme (Homo sapiens) (UniProt P17707).
T2 sequence (whole entry): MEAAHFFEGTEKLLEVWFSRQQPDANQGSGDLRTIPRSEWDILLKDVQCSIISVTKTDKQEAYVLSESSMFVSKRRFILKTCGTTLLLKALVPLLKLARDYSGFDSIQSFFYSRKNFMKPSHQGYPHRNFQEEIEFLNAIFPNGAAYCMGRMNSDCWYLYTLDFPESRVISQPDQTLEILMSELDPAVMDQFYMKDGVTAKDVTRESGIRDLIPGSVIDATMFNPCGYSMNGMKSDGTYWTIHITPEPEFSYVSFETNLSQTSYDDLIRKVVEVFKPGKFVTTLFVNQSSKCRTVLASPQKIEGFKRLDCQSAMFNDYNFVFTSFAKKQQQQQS
Briefly: Activity of S-adenosyl-L-methionine decarboxylase in human DU145 cells assessed per ug DNA at 100 uM after 48 hrs in presence of serum amine oxidase inhibitor aminoguanidine (RVb = 73 +/- 1 pmol/h per ug DNA). The test is classed as cell-based. Particulars: DU-145.

In test [5] the target is Peroxisomal N(1)-acetyl-spermine/spermidine oxidase (Homo sapiens) (UniProt Q6QHF9). Briefly: Activity of APAO in human DU145 cells assessed per ug DNA at 100 uM after 72 hrs in presence of serum amine oxidase inhibitor aminoguanidine (RVb = 662 +/- 48 pmol/h per ug DNA). The test is classed as cell-based. The following applies: DU-145.
Test [6] deals with T2, S-adenosylmethionine decarboxylase proenzyme (Homo sapiens). Briefly: Activity of S-adenosyl-L-methionine decarboxylase in human DU145 cells assessed per ug DNA at 100 uM after 24 hrs in presence of serum amine oxidase inhibitor aminoguanidine (RVb = 61 +/- 5 pmol/h per ug DNA). The following applies: DU-145. The test is classed as cell-based.
The target in test [7] is Spermine oxidase (Homo sapiens) (UniProt Q9NWM0). Briefly: Activity of spermine oxidase in human DU145 cells assessed per ug DNA at 100 uM after 48 hrs in presence of serum amine oxidase inhibitor aminoguanidine (RVb = 680 +/- 29 pmol/h per ug DNA). The format is cell-based. Particulars: DU-145.
The target is the same in test [8]. Briefly: Activity of spermine oxidase in human DU145 cells assessed per ug DNA at 100 uM after 72 hrs in presence of serum amine oxidase inhibitor aminoguanidine (RVb = 742 +/- 10 pmol/h per ug DNA). The format is cell-based. Particulars: DU-145.
The target in test [9] is T1, Ornithine decarboxylase (Homo sapiens). Briefly: Activity of ornithine decarboxylase in human DU145 cells assessed per ug DNA at 100 uM after 24 hrs in presence of serum amine oxidase inhibitor aminoguanidine (RVb = 29.3 +/- 1.4 pmol/h per ug DNA). The test is classed as cell-based. The following applies: DU-145.
Test [10] addresses T2, S-adenosylmethionine decarboxylase proenzyme (Homo sapiens). Briefly: Activity of S-adenosyl-L-methionine decarboxylase in human DU145 cells assessed per ug DNA at 100 uM after 72 hrs in presence of serum amine oxidase inhibitor aminoguanidine (RVb = 72 +/- 6 pmol/h per ug DNA). The format is cell-based. The following applies: DU-145.
The target in test [11] is Spermine oxidase (Homo sapiens) (UniProt Q9NWM0). Briefly: Activity of spermine oxidase in human DU145 cells assessed per ug DNA at 100 uM after 24 hrs in presence of serum amine oxidase inhibitor aminoguanidine (RVb = 493 +/- 22 pmol/h per ug DNA). The test is classed as cell-based. The following applies: DU-145.
For test [12], the system named is Nucleic Acid. Briefly: Induction of SSAT alternative splicing in mouse primary fetal fibroblasts assessed as SSAT-X mRNA at 100 uM by qRT-PCR in presence of CHX relative to total SSAT mRNA. (In general: Quantitative PCR measures a nucleic acid by following its amplification.)
Test [13] concerns the target Peroxisomal N(1)-acetyl-spermine/spermidine oxidase (Homo sapiens) (UniProt Q6QHF9). Briefly: Activity of APAO in human DU145 cells assessed per ug DNA at 100 uM after 24 hrs in presence of serum amine oxidase inhibitor aminoguanidine (RVb = 540 +/- 61 pmol/h per ug DNA). Particulars: DU-145. The test is classed as cell-based.
The target in test [14] is T1, Ornithine decarboxylase (Homo sapiens). Briefly: Activity of ornithine decarboxylase in human DU145 cells assessed per ug DNA at 100 uM after 72 hrs in presence of serum amine oxidase inhibitor aminoguanidine (RVb = 7.5+/- 0.9 pmol/h per ug DNA). The test is classed as cell-based. Particulars: DU-145.
Test [15] deals with Diamine acetyltransferase 1 (Homo sapiens) (UniProt P21673). Briefly: Activity of SSAT in human DU145 cells assessed per ug DNA at 100 uM after 72 hrs in presence of serum amine oxidase inhibitor aminoguanidine (RVb = 62 +/- 4 pmol/h per ug DNA). The test is classed as cell-based. The following applies: DU-145.
Test [16] shares this target. Briefly: Activity of SSAT in human DU145 cells assessed per ug DNA at 100 uM after 48 hrs in presence of serum amine oxidase inhibitor aminoguanidine (RVb = 58 pmol/h per ug DNA). The format is cell-based. The following applies: DU-145.
In test [17] the target is Peroxisomal N(1)-acetyl-spermine/spermidine oxidase (Homo sapiens) (UniProt Q6QHF9). Briefly: Activity of APAO in human DU145 cells assessed per ug DNA at 100 uM after 48 hrs in presence of serum amine oxidase inhibitor aminoguanidine (RVb = 699 +/- 21 pmol/h per ug DNA). The test is classed as cell-based. Particulars: DU-145.

Here are results for six compounds from ChEMBL document CHEMBL2177009, “The use of novel C-methylated spermidine derivatives to investigate the regulation of polyamine metabolism” (J Med Chem, 2011).

The source made the active and inactive calls. The rule behind the calls is not given here.

Sequence of Diamine acetyltransferase 1 (Homo sapiens) (P21673 whole entry): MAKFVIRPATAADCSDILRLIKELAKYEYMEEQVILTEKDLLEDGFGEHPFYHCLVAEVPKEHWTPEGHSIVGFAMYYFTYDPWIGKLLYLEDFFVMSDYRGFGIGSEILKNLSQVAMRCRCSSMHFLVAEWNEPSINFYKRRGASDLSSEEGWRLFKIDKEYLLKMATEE
Sequence of Peroxisomal N(1)-acetyl-spermine/spermidine oxidase (Homo sapiens) (Q6QHF9 whole entry): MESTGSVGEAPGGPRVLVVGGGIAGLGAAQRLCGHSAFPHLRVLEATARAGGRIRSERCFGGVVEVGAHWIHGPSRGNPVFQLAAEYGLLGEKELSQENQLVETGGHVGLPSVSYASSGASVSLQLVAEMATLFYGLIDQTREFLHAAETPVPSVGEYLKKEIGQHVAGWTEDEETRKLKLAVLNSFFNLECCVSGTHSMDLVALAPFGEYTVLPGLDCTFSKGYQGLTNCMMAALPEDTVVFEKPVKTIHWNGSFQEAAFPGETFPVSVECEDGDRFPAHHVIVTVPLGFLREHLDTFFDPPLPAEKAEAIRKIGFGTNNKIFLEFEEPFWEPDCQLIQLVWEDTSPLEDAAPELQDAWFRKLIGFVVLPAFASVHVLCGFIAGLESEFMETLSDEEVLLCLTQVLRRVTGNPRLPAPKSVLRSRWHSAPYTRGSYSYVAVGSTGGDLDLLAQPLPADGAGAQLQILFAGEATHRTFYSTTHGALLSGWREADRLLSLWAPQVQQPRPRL
Sequence of Spermine oxidase (Homo sapiens) (Q9NWM0 whole entry): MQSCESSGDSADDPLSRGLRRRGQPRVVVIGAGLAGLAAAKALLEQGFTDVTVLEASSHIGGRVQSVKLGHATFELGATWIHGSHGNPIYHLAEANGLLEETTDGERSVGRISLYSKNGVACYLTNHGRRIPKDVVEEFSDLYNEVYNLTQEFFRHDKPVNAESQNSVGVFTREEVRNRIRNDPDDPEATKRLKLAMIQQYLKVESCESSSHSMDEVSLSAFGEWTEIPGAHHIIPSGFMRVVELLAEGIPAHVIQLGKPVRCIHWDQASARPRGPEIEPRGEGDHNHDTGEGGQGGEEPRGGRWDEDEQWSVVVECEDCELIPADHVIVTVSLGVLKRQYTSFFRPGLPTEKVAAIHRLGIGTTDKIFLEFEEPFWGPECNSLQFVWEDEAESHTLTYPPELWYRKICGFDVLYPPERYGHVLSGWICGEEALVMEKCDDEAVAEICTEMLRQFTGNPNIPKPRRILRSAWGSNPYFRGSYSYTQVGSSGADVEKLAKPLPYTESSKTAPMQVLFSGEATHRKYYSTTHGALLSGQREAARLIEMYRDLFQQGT

For the compound `CC(CCN)NCCCCN` (stereo not given), the result in test [1] and in test [12] was Active. For the same compound, the Activity in test [2] was found to be 62 pmol/h; in test [3], 9.3 pmol/h; in test [4] it was 60 pmol/h; in test [5] it was 775 pmol/h; in test [6], 53 pmol/h; in test [7], 474 pmol/h. Also, the Activity in test [8] came out at 571 pmol/h; in test [9], 8.8 pmol/h; in test [10], 58 pmol/h; in test [11], 204 pmol/h; in [13] it was 528 pmol/h; in test [14], 5.4 pmol/h. Further, the figures for the Activity in [15], in test [16] and in [17] were 69 pmol/h, 59 pmol/h and 693 pmol/h, respectively.
In the case of `C[C@H](N)CCNCCCCN`, the outcome in test [1] and in [12] was Active. Moreover, the Activity in test [2] is 67 pmol/h; in [3], 4.4 pmol/h; in [4], 72 pmol/h; in test [5], 745 pmol/h; in test [6], 64 pmol/h; in test [7] it was 695 pmol/h. For the same compound, the Activity worked out at 754 pmol/h in [8]; 4.3 pmol/h in [9]; 75 pmol/h in test [10]; 362 pmol/h in test [11]; 545 pmol/h in test [13]; 3.5 pmol/h in test [14]. Moreover, the Activity in test [15] worked out at 66 pmol/h; in [16], 61 pmol/h; in test [17] it was 779 pmol/h.
As to `NCCCCNCCCN`, the outcome in [1] was Active.
As for `CC(CN)CNCCCCN` (stereo not given), the outcome in test [1] and in test [12] was Active. For the same compound, the Activity in [2] worked out at 56 pmol/h; in [3], 16.6 pmol/h; in [4], 71 pmol/h; in [5], 732 pmol/h; in test [6], 67 pmol/h; in test [7] it was 655 pmol/h. In addition, the Activity in [8] was 608 pmol/h; in [9], 21.7 pmol/h; in test [10], 79 pmol/h; in test [11], 394 pmol/h; in [13], 562 pmol/h; in test [14] it was 9.1 pmol/h. Further, the Activity in [15] stood at 61 pmol/h; in [16], 59 pmol/h; in test [17], 719 pmol/h.
As for `CCNCCCNCCCNCCCNCC`, the result in test [12] was Active.
As to `CC(N)CCCNCCCN` (stereo not given), the outcome in test [1] and in test [12] was Active. Also, the Activity amounted to 65 pmol/h in [2]; 5.5 pmol/h in [3]; 67 pmol/h in [4]; 737 pmol/h in [5]; 53 pmol/h in test [6]; 738 pmol/h in [7]. Besides, the Activity in test [8] worked out at 832 pmol/h; in [9], 4.7 pmol/h; in [10], 63 pmol/h; in test [11], 515 pmol/h; in test [13] it was 562 pmol/h; in [14], 3.8 pmol/h. The results for the Activity in test [15], in [16] and in [17] were 61 pmol/h, 62 pmol/h and 770 pmol/h, respectively.
